Reference: ChEMBL document CHEMBL1147313, “Abrusosides A-D, four novel sweet-tasting triterpene glycosides from the leaves of Abrus precatorius” (J Nat Prod, 1989)

test system: Mus musculus; assay: Acute toxicity in Swiss-Webster mouse at 1 g/kg, po; type: organism-based; settings: in vivo, 1000 mg/kg

SMILES	Activity
CC1=CC[C@@H]([C@@H](C)[C@H]2CC[C@@]3(C)[C@@H]4CC[C@H]5[C@](C)(C(=O)O)[C@@H](O[C@@H]6O[C@H](CO)[C@@H](O)[C@H](O)[C@H]6O)CC[C@@]56C[C@@]46CC[C@]23C)OC1=O [ABRUSOSIDE A]	Non-toxic
COC(=O)[C@H]1O[C@@H](O[C@H]2[C@H](O[C@H]3CC[C@]45C[C@]46CC[C@]4(C)[C@@H]([C@H](C)[C@@H]7CC=C(C)C(=O)O7)CC[C@@]4(C)[C@@H]6CC[C@H]5[C@]3(C)C(=O)O)O[C@H](CO)[C@@H](O)[C@@H]2O)[C@H](O)[C@@H](O)[C@@H]1O [ABRUSOSIDE B]	Non-toxic
CC1=CC[C@@H]([C@@H](C)[C@H]2CC[C@@]3(C)[C@@H]4CC[C@H]5[C@](C)(C(=O)O)[C@@H](O[C@@H]6O[C@H](CO)[C@@H](O)[C@H](O)[C@H]6O[C@@H]6O[C@H](CO)[C@@H](O)[C@H](O)[C@H]6O)CC[C@@]56C[C@@]46CC[C@]23C)OC1=O [ABRUSOSIDE C]	Non-toxic
CC1=CC[C@@H]([C@@H](C)[C@H]2CC[C@@]3(C)[C@@H]4CC[C@H]5[C@](C)(C(=O)O)[C@@H](O[C@@H]6O[C@H](CO)[C@@H](O)[C@H](O)[C@H]6O[C@@H]6O[C@H](C(=O)O)[C@@H](O)[C@H](O)[C@H]6O)CC[C@@]56C[C@@]46CC[C@]23C)OC1=O [ABRUSOSIDE D]	Non-toxic
